Test results published in paper PMC7571145, “Multistep Synthesis and In Vitro Anticancer Evaluation of 2-Pyrazolyl-Estradiol Derivatives, Pyrazolocoumarin-Estradiol Hybrids and Analogous Compounds” (Molecules, 2020).

Key:
DU145 cells = test: MTT cytotoxicity assay on DU145 prostate cancer cells; type: cell-based; conditions: for primary growth inhibitory screen, cell viability, DU145: 2.5 µM, 72 h, mean±SD, untreated control about 100; for IC50: Homo sapiens, DU-145, 72 h, compounds 1-7 µM, mean ± SD, read-out: IC50 on DU145
Procedure: (§1) Cytotoxicity screens were performed to assess the in vitro anticancer activity of the synthesized A-ring-linked 2-pyrazoles of estradiol, the pyrazolocoumarin-estradiol hybrids, and their structurally simplified non-steroidal analogs on various cancerous cell lines such as MCF-7, PC-3, DU145, and HeLa and on non-cancerous MRC-5 fibroblasts. The 2-acetyl-phenol starting materials (4, 5, and 15) were also included for comparison. All compounds were applied in 2.5 µM concentration for 72 h. The obtained cell viability data were used to construct a heat map (Figure 2) in order to select compounds that exert cancer cell line-specific cytotoxicity. […] Furthermore, some compounds discriminated only DU145 cells and could eliminate these type of prostate cancer cells.
(§2) To understand structure-function relationships, we also included the structural analogs of the selected compounds, namely 7a (C-17 acetate of 8a), 8c (C-17 OH counterpart of 7c), and 9a (steroidal pair of 19a) into subsequent analyses. […] For this, compounds were applied on MCF-7, PC-3, DU145, and HeLa and on non-cancerous MRC-5 fibroblasts in various concentrations for 72 h or were treated with cisplatin at different concentrations. On the viability data, dose–response curves were fitted (Figure S1) and IC50 values were calculated accordingly (Table 3). In agreement with the primary cytotoxicity screen (Table S1), the obtained IC50 concentrations clearly indicated which compound was selectively effective on one or more cancer cell lines. […] Typically, acetylated steroidal pyrazoles were less favorable than deacetylated counterparts due to reduced cancer cell selectivity (7c, 10a).
(§3) To evaluate the in vitro pharmacological effects of the synthesized molecules, each compound was first dissolved in cell culture grade DMSO (Sigma) to a final concentration of 10 mM. Using MTT colorimetric assay, the cytotoxicity of these compounds was evaluated on cancerous (MCF-7, HeLa, DU145, PC-3) and non-cancerous (MRC-5) cell lines. Briefly, 5000 cells/well of each cell line were seeded in 96-well plates and were left to grow overnight in a 5% CO2 atmosphere at 37 °C. On the next day, cells were treated with each derivative separately, in case of the primary screen, or only with the selected compounds upon IC50 determination. Cells were incubated with the test compounds for 72 h in a 5% CO2 atmosphere at 37 °C. End point was measured by incubating cells for 1 h with 0.5 mg/mL of MTT reagent (Serva) dissolved in serum free culture medium. The formazan crystals formed by metabolically active cells were later dissolved in DMSO. Optical density of the obtained solutions was measured at 570 nm using a Synergy HTX plate reader. […] The analysis and conclusions were made based on three independent experiments. Normalized data were analyzed and the heat map was constructed using GraphPad Prism 7 software.

MRC-5 fibroblasts = test: MTT cytotoxicity assay on non-cancerous MRC-5 fibroblasts; type: cell-based; conditions: 72 h; for primary growth inhibitory screen, cell viability, MRC-5 / effect on non-cancerous fibroblasts: 2.5 µM; for primary growth inhibitory screen, cell viability, MRC-5 / IC50: MTT; for primary growth inhibitory screen, cell viability, MRC-5: mean±SD, untreated control about 100; for effect on non-cancerous fibroblasts: based on the heat map; for IC50: Homo sapiens, MRC5, compounds 1-7 µM, mean ± SD, read-out: IC50 on MRC-5
Procedure: as §1, §2, §3

PC-3 cells = test: MTT cytotoxicity assay on PC-3 prostate cancer cells; type: cell-based; conditions: for primary growth inhibitory screen, cell viability, PC-3: 2.5 µM, 72 h, mean±SD, untreated control about 100; for IC50: Homo sapiens, PC-3, 72 h, compounds 1-7 µM, mean ± SD, read-out: IC50 on PC-3
Procedure: as §1, §2, §3

MCF-7 cells = test: MTT cytotoxicity assay on MCF-7 cells; type: cell-based; conditions: for primary growth inhibitory screen, cell viability, MCF-7: 2.5 µM, 72 h, mean±SD, untreated control about 100; for IC50: Homo sapiens, MCF7, 72 h, compounds 1-7 µM, mean ± SD, read-out: IC50 on MCF-7
Procedure: as §1, §2, §3

HeLa cells = test: MTT cytotoxicity assay on HeLa cells; type: cell-based; conditions: 72 h; for primary growth inhibitory screen, cell viability, HeLa: 2.5 µM, mean±SD, untreated control about 100; for IC50: Homo sapiens, HeLa, compounds 1-7 µM, mean ± SD, read-out: IC50 on HeLa
Procedure: as §1, §2, §3

| SMILES | primary growth inhibitory screen, cell viability, DU145 (DU145 cells) | IC50 (DU145 cells) [µM] | primary growth inhibitory screen, cell viability, MRC-5 (MRC-5 fibroblasts) | effect on non-cancerous fibroblasts (MRC-5 fibroblasts) | IC50 (MRC-5 fibroblasts) [µM] | primary growth inhibitory screen, cell viability, PC-3 (PC-3 cells) | IC50 (PC-3 cells) [µM] | primary growth inhibitory screen, cell viability, MCF-7 (MCF-7 cells) | IC50 (MCF-7 cells) [µM] | melting point [°C] | primary growth inhibitory screen, cell viability, HeLa (HeLa cells) | IC50 (HeLa cells) [µM] |
| --- | --- | --- | --- | --- | --- | --- | --- | --- | --- | --- | --- | --- |
| C[C@]12CC[C@@H]3c4cc(-c5nn(-c6ccccc6)cc5C=O)c(O)cc4CC[C@H]3[C@@H]1CC[C@@H]2O [Compound 8a, 2-(4′-Formyl-1′-phenyl-1′H-pyrazol-3′-yl)-estra-1,3,5(10)-trien-3,17β-diol] | 108.8±4.1 | 6.46 ± 1 | 99.9±3.3 | no or very mild effect | 5.12 ± 1 | 54.9±3.0 | 3.05 ± 1 | 100.9±4.8 | 5.03 ± 1 | 172 to 174 | 100.4±1.6 | 4.09 ± 1 |
| CC(=O)O[C@H]1CC[C@H]2[C@@H]3CCc4cc(O)c(-c5nn(-c6ccccc6)cc5C=O)cc4[C@H]3CC[C@]12C [Compound 7a, 2-(4′-Formyl-1′-phenyl-1′H-pyrazol-3′-yl)-estra-1,3,5(10)-triene-3,17β-diol-17-acetate] | 108.7±9.1 | 6.93 ± 1 | ≥ 100±5.7 | – | 5.9 ± 1 | 87.8±7.1 | 3.63 ± 1 | 98.6±5.2 | 4.49 ± 1 | 230 to 232 | 102.7±2.7 | 4.18 ± 1 |
| Cc1ccc(-n2cc(CO)c(-c3cc4c(cc3O)CCCC4)n2)cc1 [Compound 18b, 3-(4′-(Hydroxymethyl)-1′-(4″-tolyl)-1′H-pyrazol-3-yl)-5,6,7,8-tetrahydro-2-naphthol] | 45.3±2.5 | 2.7 ± 1.1 | ≥ 100±2.6 | no or very mild effect | > 7 | 99.6±7.7 | > 7 | ≥ 100±5.3 | > 7 | 163 to 165 | ≥ 100±8.7 | > 7 |
| OCc1cn(-c2ccc(Cl)cc2)nc1-c1cc2c(cc1O)CCCC2 [Compound 18c, 3-(1′-(4″-Chlorophenyl)-4′-(hydroxymethyl)-1′H-pyrazol-3′-yl)-5,6,7,8-tetrahydro-2-naphthol] | ≥ 100±4.3 | – | ≥ 100±2.3 | – | – | 90.9±3.0 | – | ≥ 100±4.7 | – | 154 to 156 | ≥ 100±6.6 | – |
| C[C@]12CC[C@@H]3c4cc(-c5nn(-c6ccccc6)cc5CO)c(O)cc4CC[C@H]3[C@@H]1CC[C@@H]2O [Compound 11a] | 98.2±5.4 | > 7 | ≥ 100±8.2 | no or very mild effect | > 7 | 59.7±3.2 | 2.9 ± 1.3 | 93.4±3.7 | 6.8 ± 1 | 141 to 143 | 75.4±1.1 | 4.3 ± 1 |
| Cc1ccc(-n2cc(CO)c(-c3cc4c(cc3O)CC[C@@H]3[C@@H]4CC[C@]4(C)[C@@H](O)CC[C@@H]34)n2)cc1 [Compound 11b] | 97.5±10.1 | – | ≥ 100±2.2 | – | – | 74.3±2.3 | – | 80.4±2.9 | – | 201 to 203 | 70.1±4.5 | – |
